Experimental data taken from US8987195B2 (priority 2012, dated 2015).

Key:
[1] = biological target: HCV NS3/4A protease genotype 1b (Hepatitis C virus genotype 1b, UniProt P26663); assay: HCV NS3/4A protease time-resolved fluorescence (TRF) assay, Ki against genotype 1b; format: biochemical; settings: IC50 [gt-1b] (nM), NS3/4A genotype 1b, enzyme 0.2 nM
How it was run: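 First, protease (genotype 1b 0.2 nM, A156T 0.4 nM, genotype 3a 0.025 nM) is preincubated 30 min with inhibitor. Next, 25 nM TRF substrate starts the reaction, run 2.5 h at room temperature. Finally, europium fluorescence is read and Ki calculated from IC50.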

HCV genotype 1b replicon = assay: HCV replicon assay, genotype 1b replicon EC50; format: cell-based, Hepatitis C virus; settings: Hepatitis C virus, genotype 1b replicon; read-out: EC50 [gt-1b]
How it was run: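 Stable neomycin-selected genotype 1b replicon cells, some carrying luciferase:Neo^r fusion, plated without G418 with a compound dilution series and incubated 24-48 h. Read-out was RNA (^32P-probe protection or TaqMan, normalized to cyclophilin A) or luciferase activity. EC50 from four-parameter fit as percent of DMSO control.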

Row | SMILES | IC50 [1] [nM] | EC50 (HCV genotype 1b replicon) [pM]
1 | CC(C)(C)OC(=O)N[C@H]1CCCCC/C=C\[C@@H]2C[C@@]2(C(=O)O)NC(=O)[C@@H]2C[C@]3(CCc4c(cnc5ccccc45)O3)CN2C1=O [Example 101, (2R,6S,12Z,13aS,14aR,16aS)-6-[(tert-butoxycarbonyl)amino]-5,16-dioxo-1,1′,2′,6,7,8,9,10,11,13a,14,15,16,16a-tetradecahydrospiro[cyclopropa[e]pyrrolo[1,2-a][1,4]diazacyclopentadecine-2,3′-pyrano[2,3-c]quinoline]-14a(5H)-carboxylic acid] | 38.2 | > 100000
2 | CC1(OC(=O)N[C@H]2CCCCC/C=C\[C@@H]3C[C@@]3(C(=O)NS(=O)(=O)C3(C)CC3)NC(=O)[C@@H]3C[C@]4(CCc5c(c(C6CC6)nc6ccccc56)O4)CN3C2=O)CC1 [Example 102, 1-methylcyclopropyl [(2R,6S,12Z,13aS,14aR,16aS)-5′-cyclopropyl-14a-{[(1-methylcyclopropyl)sulfonyl]carbamoyl}-5,16-dioxo-1,1′,2′,5,6,7,8,9,10,11,13a,14,14a,15,16,16a-hexadecahydrospiro[cyclopropa[e]pyrrolo[1,2-a][1,4]diazacyclopentadecine-2,3′-pyrano[2,3-c]quinolin]-6-yl]carbamate] | 0.004 | 1580
3 | CC(C)COC(=O)N[C@H]1CCCCC/C=C\[C@@H]2C[C@@]2(C(=O)NS(=O)(=O)C2(C)CC2)NC(=O)[C@@H]2C[C@]3(CCc4c(c(C5CC5)nc5ccccc45)O3)CN2C1=O [Example 103, 2-methylpropyl [(2R,6S,12Z,13aS,14aR,16aS)-5′-cyclopropyl-14a-{[(1-methylcyclopropyl)sulfonyl]carbamoyl}-5,16-dioxo-1,1′,2′,5,6,7,8,9,10,11,13a,14,14a,15,16,16a-hexadecahydrospiro[cyclopropa[e]pyrrolo[1,2-a][1,4]diazacyclopentadecine-2,3′-pyrano[2,3-c]quinolin]-6-yl]carbamate] | 0.012 | 1510
4 | CC1(S(=O)(=O)NC(=O)[C@@]23C[C@H]2/C=C\CCCCC[C@H](NC(=O)OC2CCCC2)C(=O)N2C[C@@]4(CCc5c(c(C6CC6)nc6ccccc56)O4)C[C@H]2C(=O)N3)CC1 [Example 104, cyclopentyl [(2R,6S,12Z,13aS,14aR,16aS)-5′-cyclopropyl-14a-{[(1-methylcyclopropyl)sulfonyl]carbamoyl}-5,16-dioxo-1,1′,2′,5,6,7,8,9,10,11,13a,14,14a,15,16,16a-hexadecahydrospiro[cyclopropa[e]pyrrolo[1,2-a][1,4]diazacyclopentadecine-2,3′-pyrano[2,3-c]quinolin]-6-yl]carbamate] | 0.013 | 1390
5 | Cc1nc2ccccc2c2c1O[C@]1(CC2)C[C@H]2C(=O)N[C@]3(C(=O)NS(=O)(=O)C4(C)CC4)C[C@H]3/C=C\CCCCC[C@H](NC(=O)OC(C)C)C(=O)N2C1 [Example 105, propan-2-yl [(2R,6S,12Z,13aS,14aR,16aS)-5′-methyl-14a-{[(1-methylcyclopropyl)sulfonyl]carbamoyl}-5,16-dioxo-1,1′,2′,5,6,7,8,9,10,11,13a,14,14a,15,16,16a-hexadecahydrospiro[cyclopropa[e]pyrrolo[1,2-a][1,4]diazacyclopentadecine-2,3′-pyrano[2,3-c]quinolin]-6-yl]carbamate] | 0.013 | 1420
6 | Cc1nc2ccccc2c2c1O[C@@]1(C[C@H]3C(=O)N[C@]4(C(=O)NS(=O)(=O)C5(C)CC5)C[C@H]4/C=C\CCCCC[C@H](NC(=O)OCC(C)C)C(=O)N3C1)CC2(F)F [Example 106, 2-methylpropyl [(2S,6S,12Z,13aS,14aR,16aS)-1′,1′-difluoro-5′-methyl-14a-{[(1-methylcyclopropyl)sulfonyl]carbamoyl}-5,16-dioxo-1,1′,2′,5,6,7,8,9,10,11,13a,14,14a,15,16,16a-hexadecahydrospiro[cyclopropa[e]pyrrolo[1,2-a][1,4]diazacyclopentadecine-2,3′-pyrano[2,3-c]quinolin]-6-yl]carbamate] | 0.048 | 3210
7 | Cc1nc2c(F)cccc2c2c1O[C@]1(CC2)C[C@H]2C(=O)N[C@]3(C(=O)NS(=O)(=O)C4CC4)C[C@H]3/C=C\CCCCC[C@H](NC(=O)OC(C)(C)C)C(=O)N2C1 [Example 107, tert-butyl {(2R,6S,12Z,13aS,14aR,16aS)-14a-[(cyclopropylsulfonyl)carbamoyl]-7′-fluoro-5′-methyl-5,16-dioxo-1,1′,2′,5,6,7,8,9,10,11,13a,14,14a,15,16,16a-hexadecahydrospiro[cyclopropa[e]pyrrolo[1,2-a][1,4]diazacyclopentadecine-2,3′-pyrano[2,3-c]quinolin]-6-yl}carbamate] | 0.014 | 3480
8 | Cc1ccc2nc(C)c3c(c2c1)CC[C@]1(C[C@H]2C(=O)N[C@]4(C(=O)NS(=O)(=O)C5(C)CC5)C[C@H]4/C=C\CCCCC[C@H](NC(=O)OCC(C)C)C(=O)N2C1)O3 [Example 108, 2-methylpropyl [(2R,6S,12Z,13aS,14aR,16aS)-5′,9′-dimethyl-14a-{[(1-methylcyclopropyl)sulfonyl]carbamoyl}-5,16-dioxo-1,1′,2′,5,6,7,8,9,10,11,13a,14,14a,15,16,16a-hexadecahydrospiro[cyclopropa[e]pyrrolo[1,2-a][1,4]diazacyclopentadecine-2,3′-pyrano[2,3-c]quinolin]-6-yl]carbamate] | 0.007 | 1230
9 | Cc1ccc2nc(C)c3c(c2c1)CC[C@]1(C[C@H]2C(=O)N[C@]4(C(=O)NS(=O)(=O)C5(C)CC5)C[C@H]4/C=C\CCCCC[C@H](NC(=O)OC(C)C)C(=O)N2C1)O3 [Example 109, propan-2-yl [(2R,6S,12Z,13aS,14aR,16aS)-5′,9′-dimethyl-14a-{[(1-methylcyclopropyl)sulfonyl]carbamoyl}-5,16-dioxo-1,1′,2′,5,6,7,8,9,10,11,13a,14,14a,15,16,16a-hexadecahydrospiro[cyclopropa[e]pyrrolo[1,2-a][1,4]diazacyclopentadecine-2,3′-pyrano[2,3-c]quinolin]-6-yl]carbamate] | 0.011 | 944
10 | CC(C)COC(=O)N[C@H]1CCCCC/C=C\[C@@H]2C[C@@]2(C(=O)NS(=O)(=O)C2(C)CC2)NC(=O)[C@@H]2C[C@]3(CCc4c(cnc5ccccc45)O3)CN2C1=O [Example 110, 2-methylpropyl [(2R,6S,12Z,13aS,14aR,16aS)-14a-{[(1-methylcyclopropyl)sulfonyl]carbamoyl}-5,16-dioxo-1,1′,2′,5,6,7,8,9,10,11,13a,14,14a,15,16,16a-hexadecahydrospiro[cyclopropa[e]pyrrolo[1,2-a][1,4]diazacyclopentadecine-2,3′-pyrano[2,3-c]quinolin]-6-yl]carbamate] | 0.806 | 47700
11 | CC1(OC(=O)N[C@H]2CCCCC/C=C\[C@@H]3C[C@@]3(C(=O)NS(=O)(=O)C3(C)CC3)NC(=O)[C@@H]3C[C@]4(CCc5c(c(C6CC6)nc6ccccc56)O4)CN3C2=O)CCC1 [Example 111, 1-methylcyclobutyl [(2R,6S,12Z,13aS,14aR,16aS)-5′-cyclopropyl-14a-{[(1-methylcyclopropyl)sulfonyl]carbamoyl}-5,16-dioxo-1,1′,2′,5,6,7,8,9,10,11,13a,14,14a,15,16,16a-hexadecahydrospiro[cyclopropa[e]pyrrolo[1,2-a][1,4]diazacyclopentadecine-2,3′-pyrano[2,3-c]quinolin]-6-yl]carbamate] | 0.011 | 685
